Assay results reported in ChEMBL document CHEMBL1221220, “Transport and signaling via the amino acid binding site of the yeast Gap1 amino acid transceptor” (Nat Chem Biol, 2009).
Changes are numbered by the printed parent chain. The source made the active and inactive calls. No cut-off for these calls is given here.

What was measured:
[1] = tested on: T1, General amino-acid permease GAP1 (Saccharomyces cerevisiae), P19145 [S398C]; assay: Activation of yeast Gap1 S398C mutant-mediated amino acid uptake at 10 mM
T1 sequence (whole entry): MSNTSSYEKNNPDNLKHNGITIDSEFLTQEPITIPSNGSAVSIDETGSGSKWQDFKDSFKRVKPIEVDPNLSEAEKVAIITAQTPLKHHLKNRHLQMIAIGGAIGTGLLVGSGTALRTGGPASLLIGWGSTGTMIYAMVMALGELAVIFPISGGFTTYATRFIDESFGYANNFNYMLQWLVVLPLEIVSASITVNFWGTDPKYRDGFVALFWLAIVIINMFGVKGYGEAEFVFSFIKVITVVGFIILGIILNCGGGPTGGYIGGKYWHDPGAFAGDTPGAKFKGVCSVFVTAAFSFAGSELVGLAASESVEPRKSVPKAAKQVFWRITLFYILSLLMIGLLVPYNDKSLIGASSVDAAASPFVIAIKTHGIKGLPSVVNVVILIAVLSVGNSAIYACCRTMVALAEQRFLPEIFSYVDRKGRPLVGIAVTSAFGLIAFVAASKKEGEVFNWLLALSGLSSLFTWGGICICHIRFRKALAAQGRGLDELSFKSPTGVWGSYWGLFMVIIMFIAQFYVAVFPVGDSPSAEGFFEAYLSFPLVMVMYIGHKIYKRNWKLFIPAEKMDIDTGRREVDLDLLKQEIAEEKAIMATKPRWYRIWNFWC

Saccharomyces cerevisiae = assay: Induction of yeast Gap1 L404 mutant-mediated trehalose activation at 10 mM
[2] = tested on: T2, General amino-acid permease GAP1 (Saccharomyces cerevisiae), P19145 [I384C]; assay: Induction of yeast Gap1 I384C mutant-mediated trehalose activation at 2 mM in presence of 10 mM MTSEA treated before compound addition
T2 sequence (whole entry): T1 sequence (whole entry) with I384C, C398S

[3] = tested on: T3, General amino-acid permease GAP1 (Saccharomyces cerevisiae), P19145 [A405C]; assay: Induction of yeast Gap1 A405C mutant-mediated […] activation at 2 mM in presence of 10 mM MTSEA treated before compound addition
T3 sequence (whole entry): T1 sequence (whole entry) with C398S, A405C

[4] = tested on: T4, General amino-acid permease GAP1 (Saccharomyces cerevisiae), P19145 [L387C]; assay: Induction of yeast Gap1 L387C mutant-mediated amino acid uptake at 2 mM in presence of 10 mM MTSEA treated before compound addition
T4 sequence (whole entry): T1 sequence (whole entry) with L387C, C398S

- Activity [1]: inactive
- Activity (Saccharomyces cerevisiae): inactive
- inhibition [2]: Active
- inhibition [3]: Active
- Activity [4]: Active
SMILES: NC(=O)NCCC[C@H](N)C(=O)O
